Where a SMILES comes first, the peptide text is derived from it. The star is where a group is joined. Benzoyl(4-OMe) = COc1ccc(C(=O)*)cc1
Key:
APC WT = biological target: T1, APC WT (Homo sapiens, UniProt P25054); assay: ITC assay, APC WT; format: binding; conditions: 30 °C
T1 sequence (P25054 303-739): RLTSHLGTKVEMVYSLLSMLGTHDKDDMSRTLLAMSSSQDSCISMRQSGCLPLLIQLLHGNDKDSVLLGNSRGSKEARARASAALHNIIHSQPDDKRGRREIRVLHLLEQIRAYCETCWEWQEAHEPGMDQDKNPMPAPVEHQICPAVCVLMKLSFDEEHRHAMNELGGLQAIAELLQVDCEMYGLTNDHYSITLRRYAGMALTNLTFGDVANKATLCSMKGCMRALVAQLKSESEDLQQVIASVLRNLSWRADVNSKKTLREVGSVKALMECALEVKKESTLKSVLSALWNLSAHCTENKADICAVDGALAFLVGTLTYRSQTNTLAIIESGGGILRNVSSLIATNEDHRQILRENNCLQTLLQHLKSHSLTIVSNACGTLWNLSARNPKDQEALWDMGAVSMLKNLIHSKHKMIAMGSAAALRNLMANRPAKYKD
Experimental: ITC experiments were performed using a MicroCal ITC200 calorimeter (Malvern Panalytical Ltd.). APC protein and peptide inhibitors were diluted with buffer containing 50 mM HEPES pH 7.5, 300 mM NaCl and 1 mM EDTA. The cells were loaded with APC proteins at 10–20 μM. All injections were performed using an initial injection of 0.2 μL followed by 19 injections of 2 μL at 100–200 μM. All measurements were carried out at 30 °C. The data were analyzed using a single-site binding model within MicroCal ITC200 analysis software to generate the stoichiometry (N), enthalpy changes (ΔH), entropy changes (ΔS), and the association constant (K) of binding. The changes in free energy (ΔG) were calculated (ΔG = ΔH-TΔS).

APC (303–739) = biological target: T2, APC (303–739) (Homo sapiens, UniProt P25054); assay: FP competitive assay using tracer 7; format: binding; conditions: individual repeats, Fig3b, read-out: %inhibition
T2 sequence (P25054 303-739): T1 sequence (P25054 303-739)
In short: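 Fluorescence polarization competition: APC (303–739) in 50 mM HEPES pH 7.5, 300 mM NaCl, 1 mM EDTA, 1 mM DTT, preincubated 1 h at room temperature with serially diluted peptides. FITC tracer 7 then added (400 nM stock) and FP read after 1.5 h at room temperature; IC50 by nonlinear regression, triplicates.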

## COc1ccc(C(=O)N[C@@H](C)C(=O)NCC(=O)N[C@@H](CCC(=O)O)C(=O)N[C@@H](CO)C(=O)N[C@@H](CC(C)C)C(=O)N[C@@H](Cc2ccc(O)cc2)C(=O)N[C@@H](CCC(=O)O)C(N)=O)cc1 [MAI-516] ({Benzoyl(4-OMe)}-AGESLYE-NH2)
APC WT
  -TΔS: 4.85 kcal/mol
  L/P ratio (number of sites per APC): 0.97
  ΔG: -11.6 kcal/mol
  ΔH: -16.4 kcal/mol
APC WT; ITC
  Kd: 4.4 nM
APC (303–739); Conc. 0.0002 μM
  inhibition at 0.0002 µM: 0.5%
APC (303–739); Conc. 0.0005 μM
  inhibition at 0.0005 µM: -0.4%
APC (303–739); Conc. 0.001 μM
  inhibition at 0.001 µM: 0.3%
APC (303–739); Conc. 0.002 μM
  inhibition at 0.002 µM: 0.4%
APC (303–739); Conc. 0.0024 μM
  inhibition at 0.0024 µM: 2.8%
APC (303–739); Conc. 0.0039 μM
  inhibition at 0.0039 µM: 3.1%
APC (303–739); Conc. 0.0049 μM
  inhibition at 0.0049 µM: 6.1%
APC (303–739); Conc. 0.006 μM
  inhibition at 0.006 µM: 3.8%
APC (303–739); Conc. 0.0078 μM
  inhibition at 0.0078 µM: 6.6%
APC (303–739); Conc. 0.0098 μM
  inhibition at 0.0098 µM: 13.7%
APC (303–739); Conc. 0.012 μM
  inhibition at 0.012 µM: 8.8%
APC (303–739); Conc. 0.0156 μM
  inhibition at 0.0156 µM: 19.4%
APC (303–739); Conc. 0.0195 μM
  inhibition at 0.0195 µM: 28.4%
APC (303–739); Conc. 0.024 μM
  inhibition at 0.024 µM: 22.1%
APC (303–739); Conc. 0.0313 μM
  inhibition at 0.0313 µM: 44%
APC (303–739); Conc. 0.0391 μM
  inhibition at 0.0391 µM: 48.7%
APC (303–739); Conc. 0.049 μM
  inhibition at 0.049 µM: 44.6%
APC (303–739); Conc. 0.0625 μM
  inhibition at 0.0625 µM: 65.8%
APC (303–739); Conc. 0.0781 μM
  inhibition at 0.0781 µM: 67.8%
APC (303–739); Conc. 0.098 μM
  inhibition at 0.098 µM: 67.3%
APC (303–739); Conc. 0.125 μM
  inhibition at 0.125 µM: 80.6%
APC (303–739); Conc. 0.1563 μM
  inhibition at 0.1563 µM: 82%
APC (303–739); Conc. 0.195 μM
  inhibition at 0.195 µM: 81.2%
APC (303–739); Conc. 0.25 μM
  inhibition at 0.25 µM: 89.6%
APC (303–739); Conc. 0.3125 μM
  inhibition at 0.3125 µM: 90.7%
APC (303–739); Conc. 0.391 μM
  inhibition at 0.391 µM: 89.5%
APC (303–739); Conc. 0.5 μM
  inhibition at 0.5 µM: 95.1%
APC (303–739); Conc. 0.625 μM
  inhibition at 0.625 µM: 96%
APC (303–739); Conc. 0.781 μM
  inhibition at 0.781 µM: 94.6%
APC (303–739); Conc. 1 μM
  inhibition at 1 µM: 98.2%
APC (303–739); Conc. 1.25 μM
  inhibition at 1.25 µM: 98.2%
APC (303–739); Conc. 1.563 μM
  inhibition at 1.563 µM: 96.2%
APC (303–739); Conc. 2 μM
  inhibition at 2 µM: 99.4%
APC (303–739); Conc. 2.5 μM
  inhibition at 2.5 µM: 99.2%
APC (303–739); Conc. 3.125 μM
  inhibition at 3.125 µM: 98.2%
APC (303–739); Conc. 5 μM
  inhibition at 5 µM: 100%
APC (303–739); Conc. 6.25 μM
  inhibition at 6.25 µM: 98.1%
APC (303–739); Conc. 10 μM
  inhibition at 10 µM: 101%
APC (303–739); Conc. 12.5 μM
  inhibition at 12.5 µM: 98.5%
APC (303–739); Conc. 20 μM
  inhibition at 20 µM: 100%
APC (303–739); Conc. 25 μM
  inhibition at 25 µM: 99.7%

Source: paper PMC9402538, “Rational design of a sensitivity-enhanced tracer for discovering efficient APC–Asef inhibitors” (Nature Communications, 2022)
